The record followed here is PubChem BioAssay AID179 (DTP/NCI, 2004).

Calls of active or inactive are those of the source.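 How the source made its calls: active means compounds giving half or more protection of infected cells from virus-caused growth loss, again on retest; inactive means the rest.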

The assay relates to CEM cells HIV-1 protection, formazan growth assay. Description: NCI AIDS Antiviral Assay. The following applies: for IC50: measured here: growth of uninfected CEM cells. In short, it runs like this:
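CEM (human) cells, HIV-1 infected vs uninfected, 5-point dosing, formazan growth read-out. Retest threshold 50% protection.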

With `CC(C)(C)C1=CC(O)(c2c3ccccc3c(C3(O)C=C(C(C)(C)C)C(=O)C(C(C)(C)C)=C3)c3ccccc23)C=C(C(C)(C)C)C1=O`, the EC50 (commonly the concentration at which the effect is half-maximal) is over 100 µM and the IC50 – broadly, the point on the concentration scale where inhibition reaches its midpoint – was over 100 µM.

Turning to `O=S1(=O)O[C@H]2CCCC[C@H]2O1`, the EC50 is over 40.7 µM and the IC50 was over 40.7 µM.

In the case of `CSc1n[nH]c(NC(=O)c2ccccc2Br)n1`, the EC50 is over 575 µM and the IC50 was 427 µM. Taken in the same sequence, the figures for `O=C(O)C(CSSCC(NC(=O)C(F)(F)F)C(=O)O)NC(=O)C(F)(F)F` (stereo not drawn) were over 200 µM and over 200 µM. For `C=CCCC(OCOCCOC)c1cc(C)c(O[Si](C)(C)C(C)(C)C)c(C)c1` (stereo not drawn), in that order: over 50.1 µM and 29.5 µM. Regarding `COC(=O)/C=C\C(C#N)(C#N)N=Cc1ccc(Br)s1`, the EC50 is over 2 µM and the IC50 worked out at 1.1 µM. In the case of `COc1ccc(-c2nc(N)c(C#N)c3c2CCS(=O)(=O)c2ccc(C)cc2-3)cc1OC`, the EC50 was over 200 µM and the IC50 turned out to be 11.2 µM. As to `COc1ccc2ccccc2c1-c1cccc2ccccc12`, the EC50 is over 200 µM and the IC50 turned out to be 32.4 µM. `O=C(O)Cn1ccc(=O)c2c([N+](=O)[O-])cccc21`: the EC50 is over 200 µM and the half-inhibitory concentration (IC50) is over 200 µM. On to `O=C1/C(=C/c2cccs2)NC(=S)N1CN1CCCC(CO)C1` (stereo not drawn), for which the EC50 is over 200 µM and the IC50 worked out at 44.7 µM. Turning to `CC(O[Si](c1ccccc1)(c1ccccc1)C(C)(C)C)[C@H](NC(=O)OC(C)(C)C)C(=O)O[Si](c1ccccc1)(c1ccccc1)C(C)(C)C` (stereo partly drawn), the EC50 is over 26.9 µM and the IC50 was 24 µM. Consider `Nc1ccc2c(c1)C(N)c1ccccc1-2` (stereo not drawn), for which the EC50 was over 200 µM and the IC50 was found to be 55 µM. As to `CC(=O)OCC1OC(OC(C)=O)C(On2nnc3c(-c4ccccc4)c(C)nn32)C(OC(C)=O)C1OC(C)=O` (stereo not drawn), the EC50 is over 60.3 µM and the IC50 is 31.6 µM. For `C(=C\c1c2oc(-c3ccccc3)cc(-c3ccccc3)c-2c2ccccc12)/C=C1\c2ccccc2-c2c(-c3ccccc3)cc(-c3ccccc3)[o+]c21`, in that order: over 6.76 µM and over 6.76 µM.

As for `Cc1ccccc1Cn1nc2ccccc2cc1=O`, the EC50 is over 380 µM and the IC50 is over 380 µM.

For the compound `CC(=O)OC[C@]1(C)CCCC2(C)C1CCC1C=C(C)[C@H]3CCC12C3` (stereo partly drawn), the EC50 is over 107 µM and the IC50 is over 107 µM. As to `CC(=O)C(N)=NCc1ccccc1`, the EC50 is over 1410 µM and the IC50 was determined as 1020 µM. Taken in the same sequence, the figures for `CC1(CCC#N)CCC(N)=CC1=O` (stereo not drawn) were over 200 µM and over 200 µM.

For `O=C(Nc1ccc(C2=NCCN2)cc1)c1cc(C(=O)Nc2ccc(C3=NCCN3)cc2)ncn1`, the EC50 was 12.3 µM and the IC50 is 61.7 µM. With `CCOC(CNCCC(=O)OC)OCC`, the result was inactive.

As for `O=C(NCCCN1CCN(CCCNC(=O)c2cnc3ccccc3n2)CC1)c1cnc2ccccc2n1`, the EC50 is over 10 µM and the IC50 was over 10 µM.

As for `CC(C)(C)c1ccc(N=O)cc1`, the EC50 was over 20 µM and the IC50 was determined as 2.45 µM. `c1ccc(-c2ccc(N=NN3CCCC3)cc2)cc1`: the EC50 is over 200 µM and the IC50 amounted to 14.8 µM. As to `C=CC[P@]1(=O)O[C@H](c2ccccc2)[C@H](C)N1C`, the result was inactive. Consider `N=C(OC1CCCCC1)N1CCCC1`, for which the EC50 was over 200 µM and the IC50 is over 200 µM.

Turning to `C#CC1(O)CCC2C3CCc4cc(Oc5nc(F)nc(-c6c7cc8ccccc8cc7c(SCC)n6CCC)n5)ccc4C3CCC21C` (stereo not drawn), the result was inactive. Consider `N#Cc1ccc(C2ON=C(c3ccccc3)N2C23CC4CC(CC(C4)C2)C3)cc1` (stereo not drawn), for which the EC50 is over 200 µM and the IC50 was determined as 151 µM.

Regarding `O=C(CC(C(=O)c1ccoc1)c1ccco1)c1ccco1` (stereo not drawn), the EC50 is over 200 µM and the IC50 was 151 µM. Take `CC(=O)OC(C(=O)[O][Ge]([CH3])([CH3])[CH3])c1ccccc1` (stereo not drawn): the outcome was inactive. Same read-out and setting: with `CC(=O)CC(C)=O.CC(=O)CC(C)=O.CC(=O)CC(C)=O.CC(=O)CC(C)=O.[Zr]` the entry was “inactive”.

`CC(C)(C)OC(=O)NC(CCC(=O)OCc1ccccc1)C(=O)NCCCO` (stereo not drawn): the EC50 is over 200 µM and the IC50 was over 200 µM. On to `COc1ccccc1CNCCCCCNCCCCCCCCCCNCCCCCNCc1ccccc1OC`, for which the EC50 is over 200 µM and the concentration for half-maximal inhibition (IC50) worked out at 28.8 µM. Regarding `Sc1ccc2ccccc2c1CNC1CCCCC1`, the EC50 is over 200 µM and the IC50 was determined as 28.2 µM. Taken in the same sequence, the figures for `CC1=CC(C)C(=O)N(CCN2CCOCC2)C(C)=C1` (stereo not drawn) were over 955 µM and over 955 µM. Take `COc1ccccc1N1C(=O)C2c3[nH]c4ccccc4c3C3CCC(C(C)(C)C)CC3C2C1=O` (stereo not drawn): the EC50 was over 1.2 µM and the IC50 was over 1.2 µM. Regarding `O=C(Nc1ccc(-c2cccs2)oc1=O)c1cnccn1`, the EC50 was over 151 µM and the IC50 is over 151 µM. As for `O=c1[nH]c(=O)n(C2CC(O)C(CO)O2)cc1C#Cc1cc(F)cc(F)c1` (stereo not drawn), the EC50 was over 692 µM and the IC50 turned out to be 355 µM. `CN1C(=O)N(C)C(O)C(Cl)(Cl)C1=O` (stereo not drawn): the EC50 is over 200 µM and the concentration for half-maximal inhibition (IC50) was over 200 µM. As for `OCC1OC(n2cnc3c(I)ncnc32)C(O)C1O` (stereo not drawn), the result was inactive. As for `O=C(O)C12C3CCC(C3)C1(C(=O)O)C1CCC2C1` (stereo not drawn), the EC50 was over 1000 µM and the IC50 is over 1000 µM.

For the compound `Cc1ncc([N+](=O)[O-])n1CC[N+](C)([O-])CCCCn1ccnc1[N+](=O)[O-]` (stereo not drawn), the result was inactive.

Take `NN1C(=O)CSC1=S`: the EC50 was over 912 µM and the half-inhibitory concentration (IC50) was determined as 295 µM. Taken in the same sequence, the figures for `O[C@]12c3ccccc3C1CCCCC2N1CCOCC1` (stereo partly drawn) were over 200 µM and over 200 µM. `CC1=NNB(O)c2sccc21`: the EC50 is over 562 µM and the concentration for half-maximal inhibition (IC50) came to 145 µM. Take `CCOC(=O)CSc1nc(-c2ccc(Cl)cc2)c(C#N)c(=O)[nH]1`: the EC50 is over 200 µM and the IC50 came to 93.3 µM. Regarding `COC(=O)C1=NN2c3ccccc3C(=O)OCCC2C1` (stereo not drawn), the EC50 was over 200 µM and the IC50 was over 200 µM. Consider `C(/Cc1ccc2c(c1)OCO2)=N\NC1=NCCCN1`, for which the EC50 was over 200 µM and the IC50 came out at 38.9 µM. For `O=c1c(-c2ccc(Cl)cc2)nnc2n(Cc3ccccc3)c3ccccc3n12`, the EC50 is over 200 µM and the IC50 is over 200 µM. As to `O=S(O)CCCCCSSCCCCSSCCCCCS(=O)O`, the result was inactive. Consider `O=C1C=CC(=O)c2c1ccc1c3ccccc3n(Cc3ccc([N+](=O)[O-])cc3)c21`, for which the EC50 is over 200 µM and the IC50 stood at 2.82 µM. In the case of `N=C(N)Cn1cnc2ccccc21`, the EC50 is over 5500 µM and the IC50 amounted to 4680 µM.

Take `C[C@@]12C[C@@H](c3ccccc3O1)N1CCSC1=N2`: the outcome was inactive. For the compound `O=S(=O)(Cc1ccccc1)c1nnc(S(=O)(=O)c2ccc(Cl)cc2)s1`, the EC50 was over 200 µM and the IC50 came out at 5.5 µM. As for `O=C1CCCc2cc3c(cc21)CCC3C(=O)O` (stereo not drawn), the outcome was inactive. `O=c1c2c([nH]c3nccn13)CCCC2`: the EC50 was over 200 µM and the IC50 is over 200 µM. Take `NCCCN1c2ccccc2Sc2ccc(Cl)cc21`: the EC50 was over 200 µM and the IC50 amounted to 10.7 µM.

With `Cc1[nH]c2ccccc2c1C1CC(=O)NC1=O` (stereo not drawn), the outcome was inactive. Take `O=C(CN1C(=O)c2cccc3c(Br)ccc(c23)C1=O)c1ccc(Cl)cc1`: the EC50 was over 200 µM and the IC50 came to 33.1 µM. As for `CC1=C(O)C(=O)C(C)=C(O)C1=O`, the EC50 was over 513 µM and the IC50 was 9.33 µM. As for `O=C(O)c1ccccc1C(=O)NC(Cc1cnc[nH]1)C(=O)O` (stereo not drawn), the EC50 was over 200 µM and the concentration for half-maximal inhibition (IC50) is over 200 µM. Regarding `O=C(CN1CCC(O)(c2ccccc2)CC1)N1CCN(/C=C/c2ccccc2)CC1`, the EC50 was over 200 µM and the concentration for half-maximal inhibition (IC50) was determined as 58.9 µM. Turning to `COc1ccc2nc3cc(Cl)ccc3c(NCCC(=O)OCC(O)C(O)C(O[C@H](C)C(=O)NC(C)C(=O)NC(CCC(N)=O)C(=O)OCc3ccccc3)C(C=O)NC(C)=O)c2c1` (stereo partly drawn), the EC50 was 0.955 µM and the IC50 was found to be 4.68 µM. Taken in the same sequence, the figures for `CCCCCCCCOCC(O)COC(=O)CCCCCCC` (stereo not drawn) were over 251 µM and 20.9 µM. In the case of `CN(C)c1ccc(/C=C(\C#N)c2cccc(Br)c2)cc1`, the EC50 is over 200 µM and the IC50 came to 0.0631 µM. For `O=C1OC(c2ccccc2)=N/C1=C/c1ccc2c(c1)OCO2`, in that order: over 24.5 µM and over 24.5 µM.

Consider `Oc1cc(Cl)cc2cccnc12`, for which the outcome was inactive.

In the case of `CN1CCCC(CC2c3ccccc3Sc3ccccc32)C1` (stereo not drawn), the EC50 was over 200 µM and the IC50 was found to be 12.3 µM. Consider `CCCCOc1cc(C[S+]2CCCC2)c(OC)cc1C[S+]1CCCC1`, for which the EC50 is over 145 µM and the concentration for half-maximal inhibition (IC50) stood at 14.8 µM. Regarding `CC(C)(C)C(=O)/C=C/c1ccc(Br)cc1`, the result was inactive. For the compound `Cn1c(-c2cccs2)cc(-c2ccsc2)c1-c1ccsc1`, the EC50 is over 200 µM and the IC50 is over 200 µM. With `CC1CCC(O)/C=C/C(=O)OC(C)C(O)/C=C/C(=O)O1` (stereo not drawn), the EC50 is over 200 µM and the IC50 was determined as 10 µM. `Cc1ccc([N+](=O)[O-])c2c(NCC(O)CO)ccnc12` (stereo not drawn): the EC50 was over 33.9 µM and the IC50 is 26.3 µM.

As to `C=C1CN(S(=O)(=O)c2ccc(C)cc2)CCCN(C2CCCC2)CCCN(S(=O)(=O)c2ccc(C)cc2)C1`, the EC50 is over 200 µM and the IC50 stood at 4.07 µM.

On to `COc1c2ccoc2nc2c(OC)c(OCC(O)C(C)(C)O)ccc12` (stereo not drawn), for which the EC50 is over 513 µM and the IC50 is over 513 µM.

With `C[C@@H]1C[C@H]2[C@@H]3CCC4=CC(=O)C=C[C@]4(C)[C@@]3(F)[C@@H](O)C[C@]2(C)[C@@]1(O)C(=O)CO`, the result was inactive. In the case of `NCC1(N2CCOCC2)C2CCCC21CNc1ccccc1` (stereo not drawn), the EC50 is over 24 µM and the IC50 is over 24 µM.
